Measurements published in patent US11273217B2, “Cancer treatment composition combining anti-CD26 antibody and other anticancer agent” (Y's AC Co., Ltd., priority 2015, dated 2022).
Like-named read-outs stand apart in the source and are kept apart here.

Assays:
Type in all cases: cell-based
JMN cells = test: MTT cell growth assay, JMN; settings: MESO1 (CD9+) vs JMN (CD9−); 10^−9 to 10^−4 M
Method: (§1) Gemcitabine was studied for its effect on the growth of a mesothelioma cell line. A mesothelioma cell line MESO1, JMN, H2452, or H226 (2×10^3 cells/well) was inoculated to a 96-well plate. One hour later, gemcitabine (10^−9, 10^−8, 10^−7, 10^−6, 10^−5, or 10^−4 M) was added thereto (N=6). 2 days later, MTT assay was conducted. Significant difference was tested by two-tailed t-test (vs Cont).
(§2) JMN cells (2×10^3 cells/well) were inoculated to a 96-well plate. One hour later, gemcitabine (0, 3×10^−10, 10^−9, or 3×10^−8 M) and YS110 (0, 1, 3, or 10 μg/ml) were added thereto in combination. At day 2, MTT assay was conducted. Significant difference was tested by two-tailed t-test (vs Cont). Next, interaction in concomitant use of medications was studied (n=6). The interaction between YS110 and gemcitabine used concomitantly was analyzed by two-way ANOVA.
(§3) MESO1, JMN, H2452 or H226 cells (2×10^3 cells/well were inoculated to a 96-well plate. One hour later, 3×10^−8 M or 10^−7 M gemcitabine was added thereto by concomitant use with the combination of cisplatin (0, 0.1, 0.3, or 1 μM) and pemetrexed (0, 0.03, 0.1, or 0.3 μM) (n=6). At day 2, MTT assay was conducted.
(§4) The growth inhibitory effects of cisplatin (10^−9 to 10^−4 M) and pemetrexed (10^−9 to 10^−4 M) were compared using the MESO1 and JMN cell lines.
(§5) The growth inhibitory effect of gemcitabine (10^−9 to 10^−4 M) was compared using MESO1, H2452, JMN, and H226 cell lines.

H2452 cells [1] = test: Boyden chamber invasion assay, H2452; settings: 24 hours; for action on cell invasion (in words): cisplatin at 10 and 30 μM, pemetrexed even at 30 μM
Method: (§6) MESO1 cells or H2452 cells (2.5×10^4 cells/well) were inoculated to a Boyden chamber. One hour later, cisplatin (5, 10, or 30 μM) or pemetrexed (1, 10, or 30 μM) was added thereto (n=5), followed by Boyden chamber invasion assay. 24 hours after the cell inoculation, invasive cells were stained with Diff-Quik-staining kit. Significant difference was tested by two-tailed t-test (vs Cont).
(§7) MESO1 cells or H2452 cells (2.5×10^4 cells/well) were inoculated to a Boyden chamber. One hour later, the combination of cisplatin (0, 3, or 10 μM) and pemetrexed (0, 10, or 30 μM) was added thereto (n=5), followed by Boyden chamber invasion assay. 24 hours after the cell inoculation, invasive cells were stained with Diff-Quik-staining kit. Significant difference was tested by two-tailed t-test (vs Cont).
as §7, with “H2452” for “MESO1 cells or H2452”, “YS110” for “pemetrexed”, “20 μg/ml)” for “30 μM)”, “Cont). Next, the interaction of YS110 with cisplatin-pemetrexed concomitant use was studied. The interaction was analyzed by two-way ANOVA.” for “Cont).”

H2452 cells [2] = test: MTT cell growth assay, H2452; settings: 10^−9 to 10^−4 M; day 2
Method: (§8) MESO1 or H2452 cells (2×10^3 cells/well) were inoculated to a 96-well plate. One hour later, cisplatin or pemetrexed was added thereto at 10^−9, 10^−8, 10^−7, 10^−6, 10^−5, or 10^−4 M (n=6). At day 2, MTT assay was conducted.
H2452 cells (2×10^3 cells/well) were inoculated to a 96-well plate. One hour later, the combination of 0.03, 0.3, or 1 μM cisplatin and 0.1, 3, or 10 μg/ml YS110, or the combination of 0.01, 0.1, or 0.3 μM pemetrexed and 0.1, 3, or 10 μg/ml YS110 was added thereto (n=6). At day 2, MTT assay was conducted. Significant difference was tested by two-tailed t-test (vs Cont).
(§9) MESO1 cells (2×10^3 cells/well) or H2452 cells (2×10^3 cells/well) were inoculated to a 96-well plate. One hour later, 0.3 μM cisplatin-0.1 μM pemetrexed combination, or YS110 (10 μg/ml) plus the 0.3 μM cisplatin-0.1 μM pemetrexed combination was added thereto (n=6). At day 2, MTT assay was conducted. Significant difference was tested by two-tailed t-test (vs Cont).
as §1
as §2, with “H2452” for “JMN”, “10^−8, 3×10^−8,” for “3×10^−10, 10^−9,”, “10^−7” for “3×10^−8”
as §3, §5

MESO1 cells [3] = test: MTT cell growth assay, MESO1; settings: 10^−9 to 10^−4 M; day 2
Method: as §8
MESO1 cells (2×10^3 cells/well) were inoculated to a 96-well plate. One hour later, the combination of 0.3, 3, or 10 μM cisplatin and 0.1, 3, or 10 μg/ml YS110, or the combination of 0.03, 0.3, or 1 μM pemetrexed and 0.1, 3, or 10 μg/ml YS110 was added thereto. At day 2, MTT assay was conducted. Significant difference was tested by two-tailed t-test (vs Cont).
as §9, §1
as §2, with “MESO1” for “JMN”, “10^−8, 3×10^−8,” for “3×10^−10, 10^−9,”, “10^−7” for “3×10^−8”
as §3, §4, §5

MESO1 cells [4] = test: Boyden chamber invasion assay, MESO1; settings: 24 hours; for action on cell invasion (in words): cisplatin at 10 and 30 μM, pemetrexed even at 30 μM
Method: as §6, §7
as §7, with “MESO1” for “MESO1 cells or H2452”, “YS110” for “pemetrexed”, “20 μg/ml)” for “30 μM)”, “Cont). Next, the interaction of YS110 with cisplatin-pemetrexed concomitant use was studied. The interaction was analyzed by two-way ANOVA.” for “Cont).”

[5] = test system: JMN (CD26-positive malignant mesothelioma cell line); test: WST-1 cytotoxicity assay, JMN; settings: 48 hours
From the text: (§10) A CD26-negative malignant mesothelioma cell line MSTO-211H (MSTO) (American Type Cell Culture Collection, Manassas, Va.) was transfected with CD26 gene, which was designated as MSTO clone 12 (Aoe K et al., Clin Cancer Res. (2012) 18: 1447-56). A CD26-negative T-cell leukemia cell line Jurkat (American Type Cell Culture Collection, Manassas, Va.) was transfected with CD26 gene, which was designated as Jurkat CD26(+) (Tanaka T et al., Proc Natl Acad Sci USA (1993) 90: 4586-90). A CD26-positive cell line JMN established from malignant mesothelioma was kindly provided by professor Chikao Morimoto, the Institute of Medical Science, the University of Tokyo. All the cell lines were cultured in RPMI medium (catalog No. 11875-093, Life Technologies Corp., Carlsbad, Calif.) containing 10% heat-inactivated fetal bovine serum (FBS, Life Technologies Corp., Carlsbad, Calif.), ABPC (100 μg/ml), and streptomycin (100 μg/ml) at 37° C. under 5% CO2 environment.
(§11) WST-1 assay was conducted according to the manual provided by the manufacturer. The background absorbance of each sample at 630 nm was subtracted from the measurement value thereof at 450 nm.

[6] = test system: MSTO clone 12 (CD26-positive malignant mesothelioma cell line); test: WST-1 cytotoxicity assay, MSTO clone 12
From the text: as §10, §11

[7] = test system: Jurkat CD26(−) (T-cell leukemia cell line); test: WST-1 cytotoxicity assay, Jurkat CD26(−); settings: 48 hours
From the text: as §10
(§12) WST-1 assay was conducted according to the manual provided by the manufacturer. The background absorbance of each sample at 630 nm was subtracted from the measurement value thereof at 450 nm. The experiment was conducted in triplicate, and typical results are shown.

[8] = test system: Jurkat CD26(+) (T-cell leukemia cell line); test: WST-1 cytotoxicity assay, Jurkat CD26(+); settings: 48 hours
From the text: as §10, §11

[9] = test system: MSTO-wt (CD26-negative malignant mesothelioma cell line MSTO-211H); test: WST-1 cytotoxicity assay, MSTO wt; settings: 48 hours
From the text: as §10, §12

[10] = pemetrexed even at 30 μM with cisplatin 10 μM

N.N.[Cl][Pt][Cl] [cisplatin]
growth inhibitory effect compared between MESO1 and JMN (JMN cells): did not differ | action on cell invasion (in words) (H2452 cells [1]): suppressed cell invasion | cell growth, single drug dose-response (in words) (H2452 cells [2]): suppressed the growth | cell growth, single drug dose-response (in words) (MESO1 cells [3]): suppressed the growth | action on cell invasion (in words) (MESO1 cells [4]): suppressed cell invasion

Nc1nc2[nH]cc(CCc3ccc(C(=O)N[C@@H](CCC(=O)O)C(=O)O)cc3)c2c(=O)[nH]1 [pemetrexed]
growth inhibitory effect compared between MESO1 and JMN (JMN cells): did not differ | action on cell invasion (in words) (H2452 cells [1]): no inhibitory action on invasion | effect of pemetrexed on the cell invasion inhibitory effect of cisplatin (H2452 cells [1]; [10]): did not potentiate | cell growth, single drug dose-response (in words) (H2452 cells [2]): suppressed the growth | cell growth, single drug dose-response (in words) (MESO1 cells [3]): suppressed the growth | action on cell invasion (in words) (MESO1 cells [4]): no inhibitory action on invasion | effect of pemetrexed on the cell invasion inhibitory effect of cisplatin (MESO1 cells [4]; [10]): did not potentiate

CC(C)[C@]12O[C@H]1[C@@H]1O[C@@]13C1(C)CCC4=C(COC4=O)[C@@H]1C[C@@H]1O[C@@]13[C@@H]2O (stereo partly drawn) [Triptolide, (3bS,4aS,5aS,6R,6aR,7aS,7bS,8aS,8bS)-6-hydroxy-6a-isopropyl-8b-methyl-3b,4,4a,6,6a,7a,7b,8b,9,10-decahydrotrisoxireno[6,7:8a,9:4b,5]phenanthro[1,2-c]furan-1(3H)-one]
cytotoxicity (in words) [5]: dose-dependent toxic effect | IC50 ([5]; CD26 (+)): 15 nM | IC50 ([6]; MSTO clone12, CD26 (+), 48 hours, read-out: IC50): 10 nM | cytotoxicity (in words) ([6]; MSTO clone 12, 48 hours): dose-dependent toxic effect | IC50 ([7]; Homo sapiens, Jurkat (−)): > 100 nM | cytotoxicity (in words) ([7]; Jurkat): dose-dependent toxic effect | IC50 ([8]; Homo sapiens, Jurkat CD26 (+)): 6 nM | cytotoxicity (in words) ([8]; Jurkat CD26(+)): dose-dependent toxic effect | IC50 ([9]; Homo sapiens, MSTO-211H, MSTO wt, CD26 (−)): 10 nM | cytotoxicity (in words) ([9]; MSTO-wt): dose-dependent toxic effect

B1: Y-TR1 SPDP (conjugate)
heavy: EVQLVESGAGVKQPGGTLRLTCTASGFSLTTYGVHWVRQAPGKGLEWVGVIWGDGRTDYDAAFMSRVTISKDTSKSTVYLQMNSLRAEDTAVYYCMRNRHDWFDYWGQGTTVTVSSASTKGPSVFPLAPSSKSTSGGTAALGCLVKDYFPEPVTVSWNSGALTSGVHTFPAVLQSSGKLSSVVTVPSSSLGTQTYICNVNHKPSNTKVDKKVEPKSCDKTHTCPPCPAPELLGGPSVFLFPPKPKDTLMISRTPEVTCVVVDVSHEDPEVKFNWYVDGVEVHNAKTKPREEQYNSTYRVVSVLTVLHQDWLNGKEYKCKVSNKALPAPIEKTISKAKGQPREPQVYTLPPSRDELTKNQVSLTCLVKGFYPSDIAVEWESNGQPENNYKTTPPVLDSDGSFFKKLTVDKSRWQQGNVFSCSVMHEALHNHYTQKSLSLSPGK
light: DILLTQSPSSLSATPGERATITCRASQGIRNNLNWYQQKPGQAPRLLIYYSSNLQSGVPSRFSGSGSGTDFTLTISRLQPEDVAAYYCQQSIKLPFTFGSGTKVEIKRTVAAPSVFIFPPSDEQLKSGTASVVCLLNNFYPREAKVQWKVDNALQSGNSQESVTEQDSKDSTYSLSSTLTLSKADYEKHKVYACEVTHQGLSSPVTKSFNRGEC
IC50 ([6]; MSTO clone12, CD26 (+), 48 hours): 38 µg/mL | IC50 ([6]; Table 5: comparison among 3 types of linkers, MSTO clone 12): 35 µg/mL
